The results in this text go back to ChEMBL document CHEMBL3352080, “Kojic acid derived hydroxypyridinone-chloroquine hybrids: synthesis, crystal structure, antiplasmodial activity and β-haematin inhibition” (Bioorg Med Chem Lett, 2014).

Data set [1] deals with Plasmodium falciparum. Kind of data set: Antiplasmodial activity against Plasmodium falciparum K1 infected in erythrocytes assessed as [3H]hypoxanthine incorporation after 24 hrs by microbeta scintillation counting analysis. The class given is functional, organism-based.
In data set [2] the test system is Plasmodium falciparum. As to the kind of experiment: Resistance index, ratio of IC50 for Plasmodium falciparum K1 to IC50 for Plasmodium falciparum 3D7. The class given is functional.
Data set [3] can be described thus: Inhibition of beta-haematin complex formation after 60 mins by spectrophotometry relative to chloroquine. The class given is physicochemical.
For data set [4], the system named is Plasmodium falciparum. Kind of data set: Antiplasmodial activity against Plasmodium falciparum 3D7 infected in erythrocytes assessed as [3H]hypoxanthine incorporation after 24 hrs by microbeta scintillation counting analysis. The class given is functional, organism-based.

Each structure is given as a SMILES string.

As for `Cn1cc(O)c(=O)cc1CNCCCNc1ccnc2cc(Cl)ccc12`, the IC50 turned out to be 360 nM in the data set with Plasmodium falciparum [1], 6.12 equiv in data set [3] and 120 nM in the data set on Plasmodium falciparum [4]. Besides, the Ratio IC50 in the data set on Plasmodium falciparum [2] was 2.2.
For `CN(CCCNc1ccnc2cc(Cl)ccc12)Cc1cc(=O)c(O)cn1C`, in that order: 270 nM, 1.95 equiv, 40 nM and 1.
On to `Cn1cc(O)c(=O)cc1CNCCCCNc1ccnc2cc(Cl)ccc12`, for which the IC50 is 720 nM in the data set on Plasmodium falciparum [1] and 670 nM in the data set with Plasmodium falciparum [4]. In the data set on Plasmodium falciparum [2], the Ratio IC50 is 0.1.
`Cn1cc(O)c(=O)cc1CNCCCCCCNc1ccnc2cc(Cl)ccc12`: the IC50 in the data set on Plasmodium falciparum [1] was 970 nM; in data set [3] it was 0.7 equiv; in the data set on Plasmodium falciparum [4] it was 150 nM. In addition, the Ratio IC50 in the data set with Plasmodium falciparum [2] came to 1.7.
On the same counts, the results for `O=c1cc(CNCCNc2ccnc3cc(Cl)ccc23)n(C2CC2)cc1O` are 460 nM, 1.41 equiv, 300 nM and 1.6.
On the same counts, the results for `O=c1cc(CNCCCNc2ccnc3cc(Cl)ccc23)n(C2CC2)cc1O` are 850 nM, 2.62 equiv, 160 nM and 3.6.
On the same counts, the results for `CN(CCCNc1ccnc2cc(Cl)ccc12)Cc1cc(=O)c(O)cn1C1CC1` are 360 nM, 5.24 equiv, 170 nM and 1.5.
With `O=c1cc(CNCCCCNc2ccnc3cc(Cl)ccc23)n(C2CC2)cc1O`, the IC50 in the data set on Plasmodium falciparum [1] was 30 nM; in data set [3], 2.57 equiv; in the data set with Plasmodium falciparum [4] it was 4 nM. Also, the Ratio IC50 in the data set with Plasmodium falciparum [2] turned out to be 2.1.
On the same counts, the results for `O=c1cc(CNCCCCCCNc2ccnc3cc(Cl)ccc23)n(C2CC2)cc1O` are 80 nM, 1.39 equiv, 30 nM and 2.7.
On the same counts, the results for `Cn1cc(OCc2ccccc2)c(=O)cc1CNCCNc1ccnc2cc(Cl)ccc12` are 2560 nM, 1.27 equiv, 540 nM and 4.7.
Consider `Cn1cc(OCc2ccccc2)c(=O)cc1CNCCCNc1ccnc2cc(Cl)ccc12`, for which the IC50 in the data set on Plasmodium falciparum [1] was found to be 1750 nM; in data set [3] it was 1.3 equiv; with Plasmodium falciparum [4] it was 300 nM. In addition, the “Ratio IC50” value with Plasmodium falciparum [2] came out at 3.
On the same counts, the results for `CN(CCCNc1ccnc2cc(Cl)ccc12)Cc1cc(=O)c(OCc2ccccc2)cn1C` are 2080 nM, 1.98 equiv, 390 nM and 6.9.
On the same counts, the results for `Cn1cc(OCc2ccccc2)c(=O)cc1CNCCCCNc1ccnc2cc(Cl)ccc12` are 270 nM, 0.42 equiv, 240 nM and 2.2.
For the compound `Cn1cc(OCc2ccccc2)c(=O)cc1CNCCCCCCNc1ccnc2cc(Cl)ccc12`, the IC50 was 150 nM in the data set on Plasmodium falciparum [1], 0.51 equiv in data set [3] and 40 nM with Plasmodium falciparum [4]. The “Ratio IC50” value in the data set with Plasmodium falciparum [2] amounted to 0.4.
With `O=c1cc(CNCCNc2ccnc3cc(Cl)ccc23)n(C2CC2)cc1OCc1ccccc1`, the IC50 in the data set on Plasmodium falciparum [1] is 40 nM; in data set [3], 0.56 equiv; in the data set on Plasmodium falciparum [4], 210 nM. For the same compound, in the data set on Plasmodium falciparum [2], the “Ratio IC50” value is given as 1.
Regarding `O=c1cc(CNCCCNc2ccnc3cc(Cl)ccc23)n(C2CC2)cc1OCc1ccccc1`, the IC50 in the data set on Plasmodium falciparum [1] was 1710 nM; in data set [3] it was 0.22 equiv; in the data set with Plasmodium falciparum [4], 190 nM. The “Ratio IC50” value in the data set on Plasmodium falciparum [2] turned out to be 7.1.
In the case of `CN(CCCNc1ccnc2cc(Cl)ccc12)Cc1cc(=O)c(OCc2ccccc2)cn1C1CC1`, the IC50 is 70 nM in the data set with Plasmodium falciparum [1] and 150 nM with Plasmodium falciparum [4]. In addition, the “Ratio IC50” value with Plasmodium falciparum [2] turned out to be 0.1.
As for `O=c1cc(CNCCCCNc2ccnc3cc(Cl)ccc23)n(C2CC2)cc1OCc1ccccc1`, the IC50 is 320 nM in the data set with Plasmodium falciparum [1], 0.82 equiv in data set [3] and 160 nM with Plasmodium falciparum [4]. For the same compound, the Ratio IC50 with Plasmodium falciparum [2] was 5.3.
For `O=c1cc(CNCCCCCCNc2ccnc3cc(Cl)ccc23)n(C2CC2)cc1OCc1ccccc1`, in that order: 320 nM, 0.071 equiv, 4 nM and 7.5.
On the same counts, the results for `Cn1cc(O)c(=O)cc1CNCCNc1ccnc2cc(Cl)ccc12` are 1450 nM, 0.63 equiv, 580 nM and 3.
On to `C[C@@H]1CC[C@H]2[C@@H](C)C(=O)O[C@@H]3O[C@@]4(C)CC[C@@H]1[C@]32OO4` [ARTEMISININ], for which the values for the IC50 in the data set with Plasmodium falciparum [1] and in the data set on Plasmodium falciparum [4] were 4 nM and 9 nM, respectively. Besides, the “Ratio IC50” value with Plasmodium falciparum [2] turned out to be 0.4.
In data set [3], `CCN(CC)CCCC(C)Nc1ccnc2cc(Cl)ccc12` (configuration not stated) [CHLOROQUINE] registered an IC50 of 1.9 equiv.
